{"source": "patent US8586719B2", "about": "“Triterpenes for modulating gene expression and cell membrane, and as antiprotozoal agents” (Pacific Arrow Limited, priority 2005, dated 2013)", "key": {"Fibronectin": {"test_system": "Fibronectin", "test": "Fibronectin secretion, bladder carcinoma cells (HTB-9)", "type": "cell-based, human", "settings": "Homo sapiens; Bladder HTB-9; 10 ug/ml (table: label suffix -10)", "protocol": "Reduction of Fibronectin secretion from ES2 cells after xanifolia-Y treatment. • (Results of F1, F3, F4, F5, F7, F8, F11, F12A, F15, F16, F17) Data in PCT/US2008/002086, 1188-ALA-PCT, filed Feb. 15, 2008 are incorporated herein by reference • (F11) For lung carcinoma cells (H460), at concentration of 20 ug/ml, there are inhibitions of Fibronectin secretion ranged from 20-60%. • (F12A) For bladder carcinoma cells (HTB-9), Xanifolia-Y (10 ug/ml) inhibits 50% of Fibronectin secretion. • (F15) In liver HepG2 cells. 10 ug/ml of xanifolia-Y inhibits 42% secretion of Fibronectin. • (F16) Incubation of brain glioblastoma T98G cells with 10 ug/ml of xanifolia-Y inhibits 27% Fibronectin secretion and with 20 ug/ml Y inhibits 74% Fibronectin secretion. • (F17) For skin SK-MeI-5 cells, the inhibition is 40-57% with 20 ug/ml of Xanifolia-Y."}, "[1]": {"test_system": "insulin-like growth factor binding protein 3 (IGFBP3)", "test": "Microarray gene expression in ES2 cells: IGFBP3", "type": "cell-based, human", "from_the_text": "The composition comprises bioactive compounds from natural plants or synthesis. The majority of the plants are from the Sapindaceae family, which has 140-150 genera with 1400-2000 species. The program is based on our purification methods and biological assays including the MTT assay See International Application No. PCT/US05/31900, filed Sep. 7, 2005, U.S. Ser. No. 11/289,142, filed Nov. 28, 2005, and U.S. Ser. No. 11/131,551, filed May 17, 2005, and PCT/US2008/002086, 1188-ALA-PCT, filed Feb. 15, 2008, the contents of which are incorporated herein by reference. The details of Analysis of gene expression of ES2 cells after Y-treatment by Microarray, Data Analysis Methods and Western blot in PCT/US2008/002086, 1188-ALA-PCT, filed Feb. 15, 2008, the contents of which are incorporated herein by reference"}}, "data": [{"smiles": "C/C=C(/C)C(=O)O[C@H]1[C@H](OC(=O)/C(C)=C\\C)[C@@]2(CO)C(CC1(C)C)C1=CCC3[C@@]4(C)CC[C@H](O[C@@H]5OC(C(=O)O)[C@@H](O)[C@@H](O[C@@H]6O[C@@H](CO)[C@@H](O)C6O)C5O[C@@H]5OC(CO)[C@H](O)[C@@H](O)C5O)C(C)(C)C4CC[C@@]3(C)[C@]1(C)[C@@H](O)[C@H]2O", "note": "(stereo partly drawn) [Y, 3-O-[β-D-galactopyranosyl(1→2)]-α-L-arabinofuranosy (1→3)-β-D-glucuronopyranosyl-21,22-O-diangeloyl-3β, 15α, 16α, 21β, 22α, 28-hexahydroxyolean-12-ene]", "values": [{"measurement": "inhibition at 10 µg/mL", "setting": "Fibronectin", "value": 50, "unit": "%"}, {"measurement": "IGFBP3 expression, treated/D (DMSO control)", "setting": "[1]; probe set 210095_s_at", "value": "−4.0"}, {"measurement": "IGFBP3 expression, treated/D (DMSO control)", "setting": "[1]; probe set 212143_s_at", "value": "−3.7"}]}]}
